For one data set, the target named is T1, SALL4 (Homo sapiens, UniProt Q9UJQ4).
T1 construct: endogenously expressing SALL4 with HiBiT fusion tag via CRISPR; endogenous in cells; host or cells: KELLY.2 (from KELLY, DSMZ ACC-No. 355)
As to the kind of experiment: SALL4 protein levels after treatment. It is filed as cell-based. As to conditions: various concentrations.

The subject of data set [1] is A375 NRAS^Q61K mutant melanoma cell line xenograft. As to the kind of experiment: In vivo efficacy in A375 NRAS^Q61K mutant melanoma xenograft. On the set-up: species or system BALBc/Nude mice. As to conditions: oral gavage.
The test system of data set [2] is A375 cells expressing the oncogenic NRAS^Q61K mutation. Kind of data set: Cellular growth over time of A375 cells expressing NRAS^Q61K. The data set is classed as cell-based.
In data set [3] the target is T2, BRAF class II mutant G469A (Homo sapiens, UniProt P15056, G469A).
T2 construct: host or cells: HEK-293T, lentiviral expression
As to the kind of experiment: Western blot of engineered HEK-293T cells expressing class II mutant G469A. The data set is classed as cell-based. As to conditions: lentivirus expression.

For data set [4], the target named is T3, BRAF class III mutation G466V (Homo sapiens, UniProt P15056, G466V).
T3 construct: cells endogenously expressing the Class III mutation G466V; host or cells: H1666
As to the kind of experiment: Western blot of H1666 cells endogenously expressing G466V. As to conditions: 24 hours. It is filed as cell-based.

The next data set deals with HCT-116. As to the kind of experiment: HCT-116 cell growth. It is filed as cell-based. As to conditions: HCT-116, mutant KRAS driven, WT BRAF.
The next data set has as its target T4, BRAF (wild type) (Homo sapiens, UniProt P15056).
T4 construct: host or cells: JURKAT
As to the kind of experiment: Global proteomics profiling, JURKAT cells. As to conditions: 300 nM, 24 hours. The data set is classed as cell-based. The method, then:
Each cell line was treated in duplicate with either DMSO or Compound 157 (final concentration 300 nM) for 24 hours in an incubator at 37° C. with 5% CO2. After the 24-hour incubation, cells were harvested, washed twice with PBS, and snap frozen in liquid nitrogen. Samples were re-suspended in lysis buffer [8 M urea, 50 mM HEPES (pH 8.5), 50 mM NaCl, 1× protease inhibitor cocktail] and lysed by sonication at 4° C. with 85% amplitude in a pulse setting with 30 seconds on and 30 seconds off for a total sonication time of 5 minutes. Lysates were centrifuged at maximum speed for 10 minutes at 4° C. and the supernatant collected, reduced for 1 hour at room temperature with 5 mM TCEP, and the cysteine residues were then alkylated with 15 mM iodoacetamide (room temperature, in dark, 30 minutes). Protein content was extracted by methanol-chloroform precipitation and subsequent ice-cold acetone washes. Protein pellets were resuspended in 8 M urea, 50 mM HEPES (pH 8.5) buffer and protein concentrations were measured by BCA assay. […]
For peptide tandem mass tag (TMT) labeling, 100 μg of peptides per sample was prepared at […] concentration in 200 mM HEPES (pH 8.5), 30% acetonitrile (ACN) and each the specific TMT reagent. […] TMT reporter ion intensities were quantified by extracting the signal-to-noise ratio for each. […]

The nature of data set [5]: Body weight change in the A375 xenograft study. It is filed as in vivo, BALB/c nude mice. The settings on record: all doses, PO, A375 tumor-bearing mice. The method, then:
The efficacy study was conducted in female BALB/c nude mice bearing A375 tumors. Female BALB/c nude mice were inoculated subcutaneously in the right flank with A375 tumor cells (5×10^6) in 0.2 mL of PBS supplemented with Matrigel (at a 1:1 ratio) for tumor development. Tumor volume was measured twice weekly in two dimensions using calipers, and volume (mm^3) was calculated using the formula: V=0.5 a×b^2 where a and b are the long and short diameters of the tumor in mm, respectively. Once the tumors reached an average tumor volume of 246 mm^3 (16 days after implantation), the animals were divided randomly into groups of 6, stratified to result in about equal average tumor sizes in each treatment group and treatment began on Day 0.
All agents were administered to mice bearing A375 tumors orally (PO), daily (QD; encorafenib), twice a day (BID) or three times a day (TID) for Compound 157, for 21 or 35 days. encorafenib was dosed at 35 mg/kg and Compound 157 at 0.1, 0.3, 1, 3 or 10 mg/kg twice a day or 2 mg/kg three times a day. Compound 157 was formulated in 20% PEG400+80% (25% SBECD). Body weight and MTV were measured on a 2× weekly schedule and reported as Mean±SEM.

The target of the next data set is BRAF V600E (Homo sapiens, UniProt P15056, V600E). Kind of data set: HiBiT cellular BRAF^V600E degradation assay. The data set is classed as cell-based.

“Also recorded” adds a separate entry of the source. Read-outs that look alike come from different tables or passages of the source.

From patent publication US12486253B2, “Therapeutics for the degradation of mutant BRAF” (C4 THERAPEUTICS, INC., priority 2021, dated 2025) come the findings set out here.

Chain of BRAF V600E (P15056 whole entry V600E): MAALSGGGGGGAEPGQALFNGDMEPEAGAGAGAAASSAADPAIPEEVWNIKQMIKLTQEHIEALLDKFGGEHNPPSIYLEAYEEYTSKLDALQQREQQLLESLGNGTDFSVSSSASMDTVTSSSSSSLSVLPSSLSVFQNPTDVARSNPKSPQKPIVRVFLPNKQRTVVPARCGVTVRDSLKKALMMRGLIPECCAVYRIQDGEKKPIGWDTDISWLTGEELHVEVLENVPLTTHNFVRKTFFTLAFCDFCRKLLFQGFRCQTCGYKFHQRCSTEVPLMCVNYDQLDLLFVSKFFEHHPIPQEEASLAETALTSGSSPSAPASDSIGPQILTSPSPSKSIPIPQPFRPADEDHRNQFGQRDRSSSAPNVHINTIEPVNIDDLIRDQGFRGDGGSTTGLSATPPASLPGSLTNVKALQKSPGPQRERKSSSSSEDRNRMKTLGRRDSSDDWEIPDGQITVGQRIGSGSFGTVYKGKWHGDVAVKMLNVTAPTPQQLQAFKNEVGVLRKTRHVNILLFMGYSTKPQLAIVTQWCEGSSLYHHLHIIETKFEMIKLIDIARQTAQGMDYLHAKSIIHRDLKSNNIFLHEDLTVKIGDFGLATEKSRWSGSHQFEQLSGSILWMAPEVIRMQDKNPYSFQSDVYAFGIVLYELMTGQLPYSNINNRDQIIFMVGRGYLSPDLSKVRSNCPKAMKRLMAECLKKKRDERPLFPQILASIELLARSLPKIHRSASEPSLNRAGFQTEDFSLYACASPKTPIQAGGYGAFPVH
T3 sequence (P15056 2-766 G466V): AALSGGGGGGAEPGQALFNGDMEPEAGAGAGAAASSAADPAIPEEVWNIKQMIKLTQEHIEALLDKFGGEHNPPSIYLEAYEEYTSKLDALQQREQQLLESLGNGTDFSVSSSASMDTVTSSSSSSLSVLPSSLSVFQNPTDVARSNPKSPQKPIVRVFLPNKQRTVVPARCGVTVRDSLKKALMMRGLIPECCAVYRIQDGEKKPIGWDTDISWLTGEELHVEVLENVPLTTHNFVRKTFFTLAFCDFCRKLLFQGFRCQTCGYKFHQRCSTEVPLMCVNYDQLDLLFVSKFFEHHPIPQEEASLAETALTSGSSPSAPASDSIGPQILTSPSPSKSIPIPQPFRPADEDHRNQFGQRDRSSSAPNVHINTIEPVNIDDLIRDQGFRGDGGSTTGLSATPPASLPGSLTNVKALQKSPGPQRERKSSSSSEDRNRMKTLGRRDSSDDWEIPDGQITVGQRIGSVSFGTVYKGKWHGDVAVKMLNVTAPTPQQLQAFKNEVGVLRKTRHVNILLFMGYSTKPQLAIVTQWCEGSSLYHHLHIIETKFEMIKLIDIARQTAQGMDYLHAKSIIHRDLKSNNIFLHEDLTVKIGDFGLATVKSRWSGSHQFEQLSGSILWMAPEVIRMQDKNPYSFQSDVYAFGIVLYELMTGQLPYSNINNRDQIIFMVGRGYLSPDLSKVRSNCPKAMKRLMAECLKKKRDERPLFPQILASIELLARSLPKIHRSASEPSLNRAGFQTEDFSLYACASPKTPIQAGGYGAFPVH
T2 sequence (P15056 whole entry G469A): as the sequence (P15056 whole entry V600E) above, with G469A, E600V counted along it
T1 sequence (Q9UJQ4 whole entry, the tested form may be a part): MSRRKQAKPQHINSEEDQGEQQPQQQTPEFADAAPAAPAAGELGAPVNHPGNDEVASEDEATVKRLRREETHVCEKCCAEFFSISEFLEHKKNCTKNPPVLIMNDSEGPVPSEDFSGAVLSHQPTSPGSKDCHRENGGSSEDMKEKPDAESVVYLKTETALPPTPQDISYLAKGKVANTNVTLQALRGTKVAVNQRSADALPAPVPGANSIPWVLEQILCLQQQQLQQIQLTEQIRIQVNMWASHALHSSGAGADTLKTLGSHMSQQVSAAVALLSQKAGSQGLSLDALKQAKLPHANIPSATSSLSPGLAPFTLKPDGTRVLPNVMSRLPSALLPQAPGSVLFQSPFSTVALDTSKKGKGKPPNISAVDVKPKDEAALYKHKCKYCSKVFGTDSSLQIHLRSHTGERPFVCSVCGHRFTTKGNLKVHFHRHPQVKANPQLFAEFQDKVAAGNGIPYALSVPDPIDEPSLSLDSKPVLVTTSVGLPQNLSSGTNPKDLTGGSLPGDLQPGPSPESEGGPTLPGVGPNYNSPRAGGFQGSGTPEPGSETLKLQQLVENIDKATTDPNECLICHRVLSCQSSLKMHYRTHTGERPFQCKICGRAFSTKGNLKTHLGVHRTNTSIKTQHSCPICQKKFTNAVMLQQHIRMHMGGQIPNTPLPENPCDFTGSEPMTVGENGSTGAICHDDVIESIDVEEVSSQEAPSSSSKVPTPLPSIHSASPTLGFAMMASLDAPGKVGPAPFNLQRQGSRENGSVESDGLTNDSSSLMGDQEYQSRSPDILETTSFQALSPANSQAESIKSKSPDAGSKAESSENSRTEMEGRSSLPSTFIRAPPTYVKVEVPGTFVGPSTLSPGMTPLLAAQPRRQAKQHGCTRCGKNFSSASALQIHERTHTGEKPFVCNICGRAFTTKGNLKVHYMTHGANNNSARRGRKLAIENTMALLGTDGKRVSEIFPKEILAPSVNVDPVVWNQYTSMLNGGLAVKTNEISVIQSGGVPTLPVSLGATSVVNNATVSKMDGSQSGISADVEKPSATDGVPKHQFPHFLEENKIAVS
T4 sequence (P15056 whole entry): as the sequence (P15056 whole entry V600E) above, with E600V counted along it

As to `CCN(C)S(=O)(=O)Nc1ccc(F)c(Oc2ccc3ncn([C@H]4COC5(CCN(C(=O)CC6(O)CCN(c7cc8c(cc7F)c(N7CCC(=O)NC7=O)nn8C)CC6)CC5)C4)c(=O)c3c2)c1C#N` [Compound 157, (3R)-3-[6-[2-cyano-3-[[ethyl(methyl)sulfamoyl]amino]-6-fluorophenoxy]-4-oxoquinazolin-3-yl]-8-[2-[1-[3-(2,4-dioxo-1,3-diazinan-1-yl)-5-fluoro-1-methylindazol-6-yl]-4-hydroxypiperidin-4-yl]acetyl]-1-oxa-8-azaspiro[4.5]decane], the SALL4 protein levels entry on SALL4 is “steady”. Besides, the “tumor response, single agent” value in data set [1] (single agent) is listed as “robust tumor growth inhibition; also recorded: efficacious”. In addition, the “tumor response, in combination with trametinib” value in data set [1] (with MEKi trametinib 0.1 mg/kg BID) is given as “tumor regressions”. Also, the confluency in data set [2] is reported as at most 50%. Besides, the “degradation of class II mutant G469A” value in data set [3] was “capable of degrading”. The “phosphorylated ERK signal” value in data set [4] is recorded as “decrease”. The “reduction in BRAF signal” value in [4] (includes any WT BRAF) stood at 53%. The “effect on cell growth” value in the data set with HCT-116 is listed as “no effect; also recorded: no impact on cell growth”. In addition, at BRAF (wild type), the “BRAF protein level change” value is reported as “unchanged”. Besides, the “Mean body weight loss throughout the study” value in data set [5] is listed as at most 3.5%. Moreover, on BRAF V600E, the BRAF protein degraded is reported as 74% and the “HiBit 24 h Emax” value was found to be 27.48%. Further, the Emax at BRAF V600E (A-375, read-out: Emax BRAF^V600E degradation) was 26%. At BRAF V600E (read-out: HiBit 24 h Emax), the Emax is around 25%.
